Experimental data reported in article PMC8607231, “Generation of KS-133 as a Novel Bicyclic Peptide with a Potent and Selective VIPR2 Antagonist Activity that Counteracts Cognitive Decline in a Mouse Model of Psychiatric Disorders” (Frontiers in Pharmacology, 2021).
Where a SMILES comes first, the peptide text is derived from it. Bridges are numbered along the chain shown (N, C = ends).

Experiments:
human VIPR1 = target: T1, human VIPR1 (Homo sapiens, UniProt P32241); experiment: Calcium influx assay, antagonist activity against VIP-VIPR1 signaling; format: cell-based; details: ligand VIP (25 nM) at EC80; CHO-K1 cells; n = 4 wells, ± S.E.M; read-out: Ca influx assay [IC50 (nM)] VIPR1
T1 construct: host or cells: CHO-K1
T1 sequence (P32241 31-457): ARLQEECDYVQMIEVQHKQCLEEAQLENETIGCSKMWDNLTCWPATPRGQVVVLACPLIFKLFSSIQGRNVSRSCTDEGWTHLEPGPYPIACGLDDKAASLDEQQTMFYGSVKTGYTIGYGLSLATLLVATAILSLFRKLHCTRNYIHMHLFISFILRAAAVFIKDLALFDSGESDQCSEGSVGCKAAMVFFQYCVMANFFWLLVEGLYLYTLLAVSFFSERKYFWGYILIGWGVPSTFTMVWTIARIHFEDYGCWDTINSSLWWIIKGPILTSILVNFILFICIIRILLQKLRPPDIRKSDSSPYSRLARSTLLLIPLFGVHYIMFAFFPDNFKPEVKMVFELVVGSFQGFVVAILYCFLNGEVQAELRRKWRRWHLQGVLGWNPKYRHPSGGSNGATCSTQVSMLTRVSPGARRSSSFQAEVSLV
Method: Evaluation of antagonist activities of peptides against VIP-VIPR1, VIP-VIPR2, and PACAP-PAC1 signaling pathways and agonistic activity of KS-133 at VIPR2 was carried out by Eurofins DiscoverX (Fremont, CA, United States). Intracellular calcium mobilization was monitored using a calcium-sensitive dye loaded in CHO-K1 cells expressing human VIPR1 (ITEM 86-0030P-2243AN), VIPR2 (ITEM 86-0030P-2244AN), and PAC1 (ITEM 86-0030P-2066AN). The cells were preincubated with antagonistic peptides for 30 min at room temperature in the dark. After addition of the ligand at EC80, calcium mobilization was immediately monitored by FLIPR Tetra for 2 min. Cyclic AMP production in CHO-K1 cells expressing human VIPR2 was evaluated using HitHunter® cAMP assays (antagonist mode: ITEM 86-0007P-2362AN; agonist mode: ITEM 86-0007P-2362AG). The cells were preincubated with antagonistic peptides for 30 min at room temperature. After addition of the ligand at EC80, cells were further incubated for 30 min at room temperature. Cells were lysed and the cAMP content of the cell lysate was determined by the β-galactosidase-based enzyme fragment complementation assay ([Eglen, 2002]). IC50 values were estimated by the following equation: IC50 = 10^[Log(A/B) × (50–D)/(C–D) + Log(B)], where A is the concentration at >50% inhibition, B is the concentration at <50% inhibition, C is the inhibition rate at concertation A, and D is the inhibition rate at concertation B.
First, the antagonistic activities of parental VIpep-3, KS-132, KS-133 (monocyclic) (no bridging between Lys^7 and Asp^11), and KS-133 against human VIPR1, VIPR2, and PAC1 were evaluated by a calcium influx assay. After antagonistic peptide treatment for 30 min, ligand at a concentration of EC80 was added to the cells and then calcium signaling was measured.
FIGURE 3 Antagonistic/agonistic activities of peptides in the calcium influx and cAMP assays. For evaluation of the antagonistic activity, the cells were preincubated with antagonistic peptides for 30 min. In the calcium influx assay, after addition of ligand at EC80, calcium mobilization was monitored immediately (see details in the Methods section) (n = 4 wells for each treatment). In the cAMP assay, after a 30 min incubation with the ligand at EC80, cAMP production in cells was measured (see details in the Methods section) (n = 4 wells for each treatment).

[1] = Plasma and brain levels after intravenous administration; format: in vivo; details: mouse
From the text: Generally, drug discovery to target molecules in the CNS is harder than in peripheral tissues. Molecule exchange between the periphery and CNS is strictly restricted by the blood−brain barrier (BBB), especially molecules with a molecular weight (MW) of >400 g/mol. In addition to the MW limit, CNS drugs need to have high lipophilicity to cross the BBB ([McMartin et al., 1987]; [Dong, 2018]), but high lipophilic small molecules likely have undesirable side effects by potential off-target binding. Conversely, the MW of KS-133 was 1558 g/mol, which would avoid off-target side effects by VIPR2-selective binding but would make it difficult to cross the BBB. […] However, it was unclear whether the alterations in CREB phosphorylation were due to directly effects of s.c. injection of Ro 25-1553 and KS-133 on VIPR2 in the CNS. […] Intranasal administration is an attractive route for drug delivery to the brain because it allows direct transport of drugs from the nasal cavity to the brain parenchyma by bypassing systemic circulation ([Thorne et al., 2004]; [Lochhead and Thorne, 2012]; [Iwasaki et al., 2019]). It has been reported that about 1% of an administered molecule enters the CNS without crossing the BBB by administration to the nasal cavity, even those with a MW of 1000 g/mol ([McMartin et al., 1987]; [Dong, 2018]). There are some reports that the BBB becomes leaky in patients with psychiatric disorders such as schizophrenia and ASD ([Patel and Frey, 2015]; [Najjar et al., 2017]; [Kealy et al., 2020]). […] In the future, to clarify the mechanism and routes of how administered KS-133 targets the CNS, detailed pharmacokinetic studies of KS-133 in healthy mice and disease model mice using s.c., i.n., and intravenous administrations will be needed.

[2] = Peptide stability in rat plasma (RP-HPLC); format: in vitro ADME
Method: Each peptide (10 mM, 1 μl) was incubated with rat plasma (20 μl) prepared in-house. Immediately after mixing with plasma and after 24 h of incubation at 37°C, 80% acetonitrile (200 μl) was added to extract VIpep-3 and acetonitrile (200 μl) was added to extract KS-132, KS-133(monocyclic), and KS-133. The mixture was stored for 10 min on ice and then centrifuged at 20,000 × g for 10 min at 4°C. The supernatant was recovered and directly applied to RP-HPLC to determine the remaining amount of unmodified peptides in the sample.
The stability of peptides was evaluated in rat plasma. A peptide was incubated in rat plasma at 37°C for 0 and 24 h and the remaining amount of peptide was determined by RP-HPLC. By comparison with the peak area of the peptide, the remaining amount of the peptide after plasma incubation was estimated. […] KS-133(monocyclic) may form a pseudo bicyclic structure by ionic bond interaction between side chains of Lys and Asp.

[3] = rat plasma, immediately after mixing

CC[C@H](C)[C@H](NC(=O)[C@H](CC(C)C)NC(=O)[C@@H]1CC(=O)NCCCC[C@@H]2NC(=O)[C@@H]3CCCN3C(=O)[C@H](CC(C)C)NC(=O)[C@H](Cc3ccc(O)cc3)NC(=O)[C@@H]3CCCN3C(=O)[C@@H]3CCCN3C(=O)[C@@H](NC(C)=O)CSSC[C@H](NC(=O)[C@H](CC(C)C)NC(=O)[C@H](Cc3ccc(O)cc3)NC2=O)C(=O)N1)C(N)=O [KS-133, Ac-c[Cys-Pro-Pro-Tyr-Leu-Pro-c(Lys-Tyr-Leu-Cys]-Asp)-Leu-Ile-NH2] (Ac-CPPYLPKYLCDLI-NH2; disulfide 1-10; lactam 7-11)
IC50 (human VIPR1): > 5000 nM | tissue level at time molar at 80 min ([1]; brain, adult male ICR mice, 80 min after intravenous KS-133 1 nmol/g, n = 3, mean ± S.E.M., unpublished data): 0.035 ± 0.005 nmol/g | Plasma elimination half-life ([1]; in vivo): less than an hour | level at time molar at 80 min ([1]; plasma, adult male ICR mice, 80 min after intravenous KS-133 1 nmol/g, n = 3, mean ± S.E.M., unpublished data): 2780 ± 80 nM | Stability in rat plasma ([2]; 37°C, 24 h): highly stable for at least up to 24 h | RP-HPLC peak area, Input (NT) ([2]; no plasma treatment): 161695 | RP-HPLC peak area, incubation time 24 h ([2]; rat plasma, 37°C, 24 h): 163537 | remaining at 24 h, 0.476 mM ([2]; rat plasma, 37°C, 24 h, read-out: Residual rate, incubation time 24 h): 99% | RP-HPLC peak area, immediately after mixing [2, 3]: 165254 | Residual rate, immediately after mixing [2, 3]: 100%
